Experimental data reported in patent US9108983B2, “Pyrrole compounds, a process for their preparation and pharmaceutical compositions containing them” (LES LABORATOIRES SERVIER, priority 2013, dated 2015).
Where a name gives a salt, the structure may show the parent alone. Read-outs that look alike come from different tables or passages of the source.

Columns and labels:
[1] = tested on: RS4;11 leukaemia tumour line; assay: In vitro cytotoxicity (Microculture Tetrazolium Assay); type: cell-based; conditions: RS4;11 cells, exposed for 48 hours, cell viability, read-out: IC50 (nM) MTT RS4;11
Procedure: The cytotoxicity studies were carried out on the RS4;11 leukaemia tumour line.
The cells are distributed onto microplates and exposed to the test compounds for 48 hours.
The cell viability is then quantified by a colorimetric assay, the Microculture Tetrazolium Assay (Cancer Res., 1987, 47, 939-942).

Bcl-2 protein = Bcl-2 protein (histag-Bcl-2, UniProtKB P10415) (Homo sapiens (Human), UniProt P10415); assay: Inhibition of Bcl-2 by the fluorescence polarisation technique; type: binding; conditions: incubation for 2 hours, read-out: IC50 (nM) Bcl-2 FP
Bcl-2 protein, sequence (P10415 whole entry): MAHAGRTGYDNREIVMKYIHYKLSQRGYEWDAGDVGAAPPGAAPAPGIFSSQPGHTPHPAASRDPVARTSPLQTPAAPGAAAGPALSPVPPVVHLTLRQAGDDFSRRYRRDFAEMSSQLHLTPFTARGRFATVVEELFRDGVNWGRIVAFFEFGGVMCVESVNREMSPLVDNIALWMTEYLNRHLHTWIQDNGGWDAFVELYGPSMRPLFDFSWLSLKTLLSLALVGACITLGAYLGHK
In short: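 In pH 7.4 buffer (Hepes 10 mM, NaCl 150 mM, Tween20 0.05%), test compounds at increasing concentrations competed with a fluorescein peptide (1.00×10^−8 M final) for histag-Bcl-2 (2.50×10^−8 M final). Readout was fluorescence polarisation after a 2 h incubation.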

Row | IC50 (Bcl-2 protein) | Structure (SMILES) | IC50 ([1]; Homo sapiens, RS4-11, 48 h) | IC50 ([1]; Homo sapiens) | IC50 [1]
1 | 21.9 nM | Cc1c(C(=O)N(c2ccccc2)c2cnc3c(ccn3C)c2)cc(-c2cc3c(cc2C(=O)N2Cc4ccccc4C[C@H]2CN2CCOCC2)OCO3)n1C [Example 65, 1,2-Dimethyl-N-(1-methyl-1H-pyrrolo[2,3-b]pyridin-5-yl)-5-(6-{[(3S)-3-(morpholin-4-ylmethyl)-3,4-dihydroisoquinolin-2(1H)-yl]carbonyl}-1,3-benzodioxol-5-yl)-N-phenyl-1H-pyrrole-3-carboxamide hydrochloride] | 113 nM | – | –
2 | 2.1 nM | Cc1c(C(=O)N(c2ccc(O)cc2)c2cnn(C)c2)cc(-c2cc(F)c(O)cc2C(=O)N2Cc3ccccc3C[C@H]2C)n1C [Example 68, 5-(5-Fluoro-4-hydroxy-2-{[(3R)-3-methyl-3,4-dihydroisoquinolin-2(1H)-yl]carbonyl}phenyl)-N-(4-hydroxyphenyl)-1,2-dimethyl-N-(1-methyl-1H-pyrazol-4-yl)-1H-pyrrole-3-carboxamide] | 20.7 nM | – | –
3 | 5.3 nM | Cc1c(C(=O)N(c2ccc(O)cc2)c2cnc3c(ccn3C)c2)cc(-c2cc3c(cc2C(=O)N2Cc4ccccc4C[C@H]2CN2CCN(C)CC2)OCO3)n1C [Example 69, N-(4-Hydroxyphenyl)-1,2-dimethyl-5-(6-{[(3S)-3-[(4-methylpiperazin-1-yl)methyl]-3,4-dihydroisoquinolin-2(1H)-yl]carbonyl}-1,3-benzodioxol-5-yl)-N-(1-methyl-1H-pyrrolo[2,3-b]pyridin-5-yl)-1H-pyrrole-3-carboxamide hydrochloride] | 3.68 nM | – | –
4 | 7.7 nM | Cc1c(C(=O)N(c2ccc(O)cc2)c2ccc3c(c2)ncn3C)cc(-c2cc(Cl)ccc2C(=O)N2Cc3ccccc3C[C@H]2CN2CCOCC2)n1C [Example 72, 5-(5-Chloro-2-{[(3S)-3-(morpholin-4-ylmethyl)-3,4-dihydroisoquinolin-2(1H)-yl]carbonyl}phenyl)-N-(4-hydroxyphenyl)-1,2-dimethyl-N-(1-methyl-1H-benzimidazol-5-yl)-1H-pyrrole-3-carboxamide] | 43.6 nM | – | –
5 | 8 nM | Cc1c(C(=O)N(c2ccncc2)c2ccc(O)cc2)cc(-c2cc3c(cc2C(=O)N2Cc4ccccc4C[C@H]2CN2CCOCC2)OCO3)n1C [Example 73, N-(4-Hydroxyphenyl)-1,2-dimethyl-5-(6-{[(3S)-3-(morpholin-4-ylmethyl)-3,4-dihydroisoquinolin-2(1H)-yl]carbonyl}-1,3-benzodioxol-5-yl)-N-(pyridin-4-yl)-1H-pyrrole-3-carboxamide dihydrochloride] | 42.6 nM | – | –
6 | 4 nM | Cc1c(C(=O)N(c2ccncc2)c2ccc(O)cc2)cc(-c2cc(Cl)ccc2C(=O)N2Cc3ccccc3C[C@H]2CN2CCOCC2)n1C [Example 74, 5-(5-Chloro-2-{[(3S)-3-(morpholin-4-ylmethyl)-3,4-dihydroisoquinolin-2(1H)-yl]carbonyl}phenyl)-N-(4-hydroxyphenyl)-1,2-dimethyl-N-(pyridin-4-yl)-1H-pyrrole-3-carboxamide hydrochloride] | 45.4 nM | – | –
7 | 19.5 nM | C[C@@H]1Cc2ccccc2CN1C(=O)c1cc2c(cc1-c1cc(C(=O)N(c3ccc(O)cc3)c3cnn(C)c3)c(CN3CCOCC3)n1C)OCO2 [Example 82, N-(4-Hydroxyphenyl)-1-methyl-5-(6-{[(3R)-3-methyl-3,4-dihydroisoquinolin-2(1H)-yl]carbonyl}-1,3-benzodioxol-5-yl)-N-(1-methyl-1H-pyrazol-4-yl)-2-(morpholin-4-ylmethyl)-1H-pyrrole-3-carboxamide] | 427 nM | – | –
8 | 8.4 nM | CCn1c(-c2cc3c(cc2C(=O)N2Cc4ccccc4C[C@H]2CN2CCOCC2)OCO3)cc(C(=O)N(c2ccc(O)cc2)c2cnn(C)c2)c1C [Example 92, 1-Ethyl-N-(4-hydroxyphenyl)-2-methyl-N-(1-methyl-1H-pyrazol-4-yl)-5-(6-{[(3S)-3-(morpholin-4-ylmethyl)-3,4-dihydroisoquinolin-2(1H)-yl]carbonyl}-1,3-benzodioxol-5-yl)-1H-pyrrole-3-carboxamide hydrochloride] | 37.8 nM | – | –
9 | 19.7 nM | COCCn1c(-c2cc3c(cc2C(=O)N2Cc4ccccc4C[C@H]2CN2CCOCC2)OCO3)cc(C(=O)N(c2ccc(O)cc2)c2cnn(C)c2)c1C [Example 93, N-(4-Hydroxyphenyl)-1-(2-methoxyethyl)-2-methyl-N-(1-methyl-1H-pyrazol-4-yl)-5-(6-{[(3S)-3-(morpholin-4-ylmethyl)-3,4-dihydroisoquinolin-2(1H)-yl]carbonyl}-1,3-benzodioxol-5-yl)-1H-pyrrole-3-carboxamide hydrochloride] | 368 nM | – | –
10 | 8.6 nM | Cc1c(C(=O)N(c2ccc(O)cc2)c2cnn(C)c2)cc(-c2cc3c(cc2C(=O)N2Cc4ccccc4C[C@H]2CN2CCOCC2)OCO3)n1CCF [Example 94, 1-(2-Fluoroethyl)-N-(4-hydroxyphenyl)-2-methyl-N-(1-methyl-1H-pyrazol-4-yl)-5-(6-{[(3S)-3-(morpholin-4-ylmethyl)-3,4-dihydroisoquinolin-2(1H)-yl]carbonyl}-1,3-benzodioxol-5-yl)-1H-pyrrole-3-carboxamide hydrochloride] | 104 nM | – | –
11 | 7 nM | Cc1c(C(=O)N(c2ccc(O)cc2)c2cnn(C)c2)cc(-c2cc3c(cc2C(=O)N2Cc4ccccc4C[C@H]2CN2CCOCC2)OCO3)n1CC(F)F [Example 95, 1-(2,2-Difluoroethyl)-N-(4-hydroxyphenyl)-2-methyl-N-(1-methyl-1H-pyrazol-4-yl)-5-(6-{[(3S)-3-(morpholin-4-ylmethyl)-3,4-dihydroisoquinolin-2(1H)-yl]carbonyl}-1,3-benzodioxol-5-yl)-1H-pyrrole-3-carboxamide hydrochloride] | 174 nM | – | –
12 | 13.5 nM | Cc1c(C(=O)N(c2ccc(O)cc2)c2cnn(C)c2)cc(-c2cc3c(cc2C(=O)N2Cc4ccccc4C[C@H]2C)OCO3)n1CCN1CCOCC1 [Example 96, N-(4-Hydroxyphenyl)-2-methyl-5-(6-{[(3R)-3-methyl-3,4-dihydroisoquinolin-2(1H)-yl]carbonyl}-1,3-benzodioxol-5-yl)-N-(1-methyl-1H-pyrazol-4-yl)-1-[2-(morpholin-4-yl)ethyl]-1H-pyrrole-3-carboxamide hydrochloride] | 161 nM | – | –
13 | 19 nM | Cc1c(C(=O)N(c2ccccc2)c2ccc(O)cc2)cc(-c2cc3c(cc2C(=O)N2Cc4ccccc4C[C@H]2C)OCO3)n1CCN1CCOCC1 [Example 97, N-(4-Hydroxyphenyl)-2-methyl-5-(6-{[(3R)-3-methyl-3,4-dihydroisoquinolin-2(1H)-yl]carbonyl}-1,3-benzodioxol-5-yl)-1-[2-(morpholin-4-yl)ethyl]-N-phenyl-1H-pyrrole-3-carboxamide hydrochloride] | 98 nM | – | –
14 | 7.6 nM | Cc1c(C(=O)N(c2ccccc2)c2ccc(O)cc2)cc(-c2cc3c(cc2C(=O)N2Cc4ccccc4C[C@H]2C)OCO3)n1CCN(C)C [Example 98, 1-[2-(Dimethylamino)ethyl]-N-(4-hydroxyphenyl)-2-methyl-5-(6-{[(3R)-3-methyl-3,4-dihydroisoquinolin-2(1H)-yl]carbonyl}-1,3-benzodioxol-5-yl)-N-phenyl-1H-pyrrole-3-carboxamide hydrochloride] | 68.3 nM | – | –

Row | Structure (SMILES) | IC50 (Bcl-2 protein) | IC50 ([1]; Homo sapiens, RS4-11, 48 h) | IC50 ([1]; Homo sapiens) | IC50 [1]
15 | Cc1ccc(OC(=O)NCc2ccc(-c3cc(C(=O)N(C)c4ccc(O)cc4)c(C)n3C)c(C(=O)N3Cc4ccccc4C[C@H]3C)c2)cc1 [Example 66, 4-Methylphenyl (4-{4-[(4-hydroxyphenyl)(methyl)carbamoyl]-1,5-dimethyl-1H-pyrrol-2-yl}-3-{[(3R)-3-methyl-3,4-dihydroisoquinolin-2(1H)-yl]-carbonyl}benzyl)carbamate] | 16.9 nM | – | 241 nM | –
16 | Cc1c(C(=O)N(c2ccncc2)c2ccc(O)cc2)cc(-c2cc3c(cc2C(=O)N2Cc4ccccc4C[C@H]2CN2CCN(C)CC2)OCO3)n1C [Example 70, N-(4-Hydroxyphenyl)-1,2-dimethy-5-(6-{[(3S)-3-[(4-methylpiperazin-1-yl)methyl]-3,4-dihydroisoquinolin-2(1H)-yl]carbonyl}4,3-benodioxol-5-yl)-N-(pyridin-4-yl)-1H-pyrrole-3-carboxamide hydrochloride] | 8.5 nM | – | – | 63.5 nM
17 | Cn1cc(N(C(=O)c2cc(-c3cc4c(cc3C(=O)N3Cc5ccccc5C[C@H]3CN3CCOCC3)OCO4)n(C)c2C(F)(F)F)c2ccc(O)cc2)cn1 [Example 75, N-(4-Hydroxyphenyl)-1-methyl-N-(1-methyl-4H-pyrazol-4-yl)-5-(6-{[(3S)-3-(morpholin-4-ylmethyl)-3,4-dihydroisoquinolin-2(1TH-yl]carbonyl}-1,3-benzodioxol-5-yl)-2-(trifluoromethyl)-1H-pyrrole-3-carboxamide hydrochloride] | 52.9 nM | – | – | 367 nM
18 | COCCc1c(C(=O)N(c2ccc(O)cc2)c2cnc3c(ccn3C)c2)cc(-c2cc3c(cc2C(=O)N2Cc4ccccc4C[C@H]2CN2CCOCC2)OCO3)n1C [Example 88, N-(4-Hydroxyphenyl)-2-(2-methoxyethyl)-1-methyl-N-(1-methyl-1H-pyrrolo[2,3-b]pyridin-5-yl)-5-(6-{[(3S)-3-(morpholin-4-ylmethyl)-3,4-dihydroisoquinolin-2(1H)-yl]carbonyl}4,3-benzodioxol-5-yl)-1H-pyrrole-3-carboxamide hydrochloride] | 15.9 nM | – | – | 69.6 nM
